Legend:
MyD88 knockout mice = experiment: Serum cytokines after intraperitoneal R-848, MyD88 knockout mice; assay type: in vivo, mouse; conditions: 50 nmol intraperitoneally, ELISA
Procedure: (§1) It was examined in vivo whether TLR7 was involved in a response to R-848. The wild-type mice, MyD88 knockout mice or TLR7 knockout mice were injected intraperitoneally with 50 nmol of R-848, the sera were harvested after a predetermined period of time, and the concentration of IFN-α, TNF-α and IL12p40 in sera was determined by ELISA. […] On the contrary, the increment of these cytokines was not observed in TLR7 knockout mice.

TLR7 knockout mice = experiment: Serum cytokines after intraperitoneal R-848, TLR7 knockout mice; assay type: in vivo, mouse; conditions: 50 nmol intraperitoneally, ELISA
Procedure: as §1

[1] = tested on: peritoneal macrophages from MyD88 knockout mice; experiment: Cytokine production by peritoneal macrophages (ELISA), MyD88 knockout; assay type: cell-based, mouse; conditions: 5×10^4 cells, presence or absence of 30 U/ml IFN-γ
Procedure: (§2) 2 ml of 4% thioglycollic acid medium (DIFCO) were injected into the intraperitoneals of the wild-type mice, TLR7 knockout mice (TLR7KO), MyD88 knockout mice (MyD88KO) and TLR9 knockout mice (TLR9KO), respectively, three days later, peritoneal exudate cells were isolated from intraperitoneal of each mouse, these cells were cultured in PRMI 1640 medium (GIBCO) added with 10% fatal bovine serum (GIBCO) at 37° C. for two hours, nonadherent cells were […] by washing with Hank's buffered salt solution (HBBS; GIBCO) at iced temperature, and the adherent cells were used as peritoneal macrophages in following experiment. Total RNA (10 μg) obtained from macrophages derived from the wild-type mice (+/Y) and TLR7 knockout mouse (TLR7KO) was electrophoresed, transferred onto a nylon membrane, and hybridized with a part of TLR7 DNA, and this membrane was rehybridized with β-actin probe. It was examined by the Northern blotting. From the results shown in FIG. 3, the expression of TLR7mRNA could not be found in TLR7 knockout mice.
(§3) In addition, the measurement of cytokine generated from peritoneal macrophages was executed as follows; […] peritoneal macrophages of 2×10^5 well or 5×10^4 well were cultured in 96-well plate respectively, and after stimulated with the above-mentioned reagents for 24 h, concentration of TNF-α, IL-12p40, IL-6 and/or IFN-α were measured by ELISA according to the manual.
(§4) Before examining the reactivity of TLR7 knockout mice to imiquimod and R-848 which are imidazoquinoline group compound, firstly imiquimod or R-848 were administered to BALB/c mice (wild-type) orally at the predetermined concentration, respectively, the concentration of IFN-α, TNF-α and IL-12 in serum were measured after two hours. […] The data is shown as a mean value+/−S.D. (N=3). Similarly, the ability of these compounds to activate immune cells via TLR was examined using imiquimod or R-848 respectively. The peritoneal macrophages (5×10^4 cells) from wild-type mice and MyD88 knockout mice prepared in example 2, were stimulated by imiquimod or R-848, in the presence or absence of 30 U/ml of IFN-γ, and the concentration of TNF-α and IL-12 produced by peritoneal macrophages were measured by ELISA. […] The data is shown as a mean value+/−S.D. (N=3).

[2] = tested on: macrophages derived from TLR7 knockout mice; experiment: Intracellular signalling (NF-κB EMSA, JNK and IRAK in vitro kinase assay) in macrophages, TLR7 knockout; assay type: cell-based, mouse; conditions: TLR7KO macrophages, 100 nM R-848
Procedure: (§5) Next, the activation of intracellular signaling cascade to an antiviral immune-modulator was examined. Peritoneal macrophages (2×10^6 cells) from TLR7 knockout mice (TLR7KO) and wild-type mice respectively stimulated with thioglycollic acid, were stimulated with 100 nM of R-848 or 1.0 μM of CpGDNA 1668 (CpG) for a certain period of time, nucleoprotein was extracted, the extract obtained with the specific probe including NF-κB associated-site was incubated, electrophoresed, visualized by autoradiography, and NF-κB activation was examined as DNA-associated protein by electrophoretic mobility shift assay (EMSA). In FIG. 12, an arrow indicates induced NF-κB complexes, and an arrow head indicates a free probe.
(§6) The functional role of TLR7 in transactivation of NF-κB reporter gene induced by R-848 was examined. HEK293 cells were transiently cotransfected with TLR7 expression plasmids derived from human, and luciferase activity was measured before and after R-848 stimulation. The peritoneal macrophages derived from TLR7 knockout mice (TLR7KO) and wild-type mice stimulated with thioglycollic acid were stimulated with 100 nm of R-848 or 1.0 μM of phosphothioate modified CpGDNA 1668 (CpG), all cell lysate were prepared, immunoprecipated with anti-JNK antibody, and JNK activity was examined by In Vitro Kinase Assay using GST-c-Jun fusion protein as a substrate. The same lysate was blotted with anti-JNK antibody. Moreover, the lysate was immunoprecipated with anti-IRAK, and kinase activity of IRAK was examined by In Vitro Kinase Assay. The same lysate was blotted with anti-IRAK antibody. […] It is important to activate TLR7-MyD88-dependent signal pathway for the effect of imidazoquinoline in vivo.

[3] = tested on: peritoneal macrophages from wild-type mice; experiment: Cytokine production by peritoneal macrophages (ELISA), wild-type; assay type: cell-based, mouse; conditions: 5×10^4 cells, presence or absence of 30 U/ml IFN-γ
Procedure: as §2, §3, §4

[4] = tested on: BMDC derived from TLR7 knockout mice (TLR7KO); experiment: Surface CD40, CD80, CD86 expression on bone marrow dendritic cells (flow cytometry), TLR7 knockout; assay type: cell-based, mouse; conditions: stimulated 24 h
Procedure: (§7) The reactivity to R-848 in dendritic cells derived from bone marrow (BMDC) derived from TLR7 knockout mice (TLR7KO) and the wild-type mice was examined. The bone marrow cells obtained from TLR7 knockout mice and wild-type mice were cultured for six days in RPMI-1640 medium supplemented with 10% fatal bovine serum and 10 ng/ml of GM-CSF (mouse granulocyte/macrophage colony stimulating factor). The obtained mouse undifferentiated dendritic cells were stimulated with R-848 or CpGDNA for 24 h, the cells were stained with biotinylated antibody to CD40, CD80 and CD86, and phycoerythrin (PE)-associated streptavidin was detected, which was analyzed by automated-cell analysing system (FACSCalibur). The results of examination of the expression of the molecules of CD40, CD80 and CD86 onto the surface of cells by flow cytometry are shown in FIG. 11. Similar to the case with CpGDNA, when BMDC derived from wild-type mice was stimulated with R-848, upregulation of CD40, CD80 and CD86 expression was induced. On the contrary, when BMDC derived from TLR7 knockout mice (TLR7KO) was stimulated with R-848, the expression of these molecules on cell surface was not enhanced.

[5] = tested on: peritoneal macrophages derived from TLR7 knockout mice (TLR7KO); experiment: Cytokine production by peritoneal macrophages (ELISA), TLR7 knockout; assay type: cell-based, mouse; conditions: 5×10^4 cells, presence or absence of 30 U/ml IFN-γ, 24 h culture
Procedure: as §2, §3
Next, the peritoneal macrophages (5×10^4 cells) derived from TLR7 knockout mice (TLR7KO), TLR9 knockout mice (TLR9KO) and wild-type mice were stimulated with CpGDNA 1668 (phosphorothioate 1688). D19, AAC30, natural 1688 (phosphodiester 1688). genomic DNA derived from Escherichia coli, or genomic DNA derived from Micrococcus deikticus at of a predetermined concentration in the presence (+) or absence (−) of 30 U/ml of IPN-γ, and the concentration of IL-12p40 produced by production of peritoneal macrophages contained in cultured supernatant was measured by ELISA after 24 h of culture. The results are shown in FIG. 6 (in the figure, marks of * show detection limits and below). […]

TLR7 = molecular target: T1, TLR7 (Homo sapiens, UniProt Q9NYK1); experiment: NF-κB reporter gene (luciferase) in HEK293 cells transfected with TLR7 expression plasmids; assay type: cell-based; conditions: HEK293 cells transiently cotransfected with human TLR7 expression plasmids, before and after R-848 stimulation
T1 construct: expressed in transfected cells; host or cells: HEK293
T1 sequence (Q9NYK1 27-1049): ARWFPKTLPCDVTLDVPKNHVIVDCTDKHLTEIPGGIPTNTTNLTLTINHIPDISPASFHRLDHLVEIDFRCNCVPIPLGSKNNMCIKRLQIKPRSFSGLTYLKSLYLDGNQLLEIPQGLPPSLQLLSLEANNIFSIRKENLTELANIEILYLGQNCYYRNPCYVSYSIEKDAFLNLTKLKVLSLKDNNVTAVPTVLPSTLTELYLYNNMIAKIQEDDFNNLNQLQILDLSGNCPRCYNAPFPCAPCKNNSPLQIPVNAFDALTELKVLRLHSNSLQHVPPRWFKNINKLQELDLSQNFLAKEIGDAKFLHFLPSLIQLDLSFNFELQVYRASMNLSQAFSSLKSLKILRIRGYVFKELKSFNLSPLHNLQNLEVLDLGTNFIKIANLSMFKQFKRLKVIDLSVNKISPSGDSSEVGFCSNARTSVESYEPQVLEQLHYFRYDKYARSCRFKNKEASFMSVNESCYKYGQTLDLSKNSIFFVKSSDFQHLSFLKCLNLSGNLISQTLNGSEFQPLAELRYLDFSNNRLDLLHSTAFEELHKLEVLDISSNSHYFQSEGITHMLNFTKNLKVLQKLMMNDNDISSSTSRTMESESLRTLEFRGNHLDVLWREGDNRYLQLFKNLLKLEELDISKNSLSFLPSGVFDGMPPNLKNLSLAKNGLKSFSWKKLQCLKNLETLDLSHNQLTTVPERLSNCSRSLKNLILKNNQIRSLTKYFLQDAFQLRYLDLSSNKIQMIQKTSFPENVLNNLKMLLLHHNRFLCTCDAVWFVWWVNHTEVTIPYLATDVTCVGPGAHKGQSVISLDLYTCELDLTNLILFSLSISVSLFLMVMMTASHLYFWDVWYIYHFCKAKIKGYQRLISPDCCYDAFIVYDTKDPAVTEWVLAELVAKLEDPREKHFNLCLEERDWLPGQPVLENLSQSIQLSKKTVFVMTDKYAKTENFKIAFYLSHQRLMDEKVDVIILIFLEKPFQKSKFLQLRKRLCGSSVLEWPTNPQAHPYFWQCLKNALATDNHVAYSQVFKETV
Procedure: as §6

genital herpes = conditions: actual treatment; cited from earlier work
[6] = tested on: macrophages derived from wild-type mice; experiment: Intracellular signalling (NF-κB EMSA, JNK and IRAK in vitro kinase assay) in macrophages, wild-type; assay type: cell-based, mouse; conditions: 100 nM R-848 or 1.0 μM CpGDNA 1668
Procedure: as §5, §6

wild-type mice = experiment: Serum cytokines after intraperitoneal R-848, wild-type mice; assay type: in vivo, mouse; conditions: 50 nmol intraperitoneally, ELISA
Procedure: as §1

BALB/c mice (wild-type) = experiment: Serum cytokines after oral administration of imidazoquinolines; assay type: in vivo, mouse; conditions: after two hours, N=3
Procedure: as §4

[7] = tested on: BMDC derived from wild-type mice; experiment: Surface CD40, CD80, CD86 expression on bone marrow dendritic cells (flow cytometry), wild-type; assay type: cell-based, mouse; conditions: stimulated 24 h
Procedure: as §7

[8] = tested on: splenic cells derived from TLR7 knockout mice (TLR7KO); experiment: Splenic cell proliferation ([3H] thymidine incorporation), TLR7 knockout; assay type: cell-based, mouse; conditions: 5×10^4 cells, cultured 48 h
Procedure: (§8) As activated phenotypes were proliferated and expressed by stimulating B-lymphocytes with imidazoquinoline group compounds, the proliferation of splenic cells was examined (Cell. Immunol. 203, 55-62, 2000; J. Immunol. 165, 5552-5557, 2000). Splenic cells (5×10^4 cells) derived from TLR7 knockout mice (TLR7KO) and wild-type mice were stimulated with R-848 and CpGDNA at a predetermined concentration, cultured for 48 h (cultured by adding [^3H] thymidine for last eight hours), and measured the level of thymidine incorporation using a β scintillation counter. A mean value+/−S.D., obtained from representative experiment among triplicate experiments is shown.

[9] = tested on: splenic cells derived from wild-type mice; experiment: Splenic cell proliferation ([3H] thymidine incorporation), wild-type; assay type: cell-based, mouse; conditions: 5×10^4 cells, cultured 48 h
Procedure: as §8

[10] = tested on: type 2 herpes simplex virus; conditions: cited from earlier work
cytomegalovirus = conditions: cited from earlier work
various types of cells = conditions: cited from earlier work
NF-κB and MAP kinase = conditions: cited from earlier work
animal model = conditions: cited from earlier work
human papilloma virus = conditions: actual treatment; cited from earlier work

CCOCc1nc2c(N)nc3ccccc3c2n1CC(C)(C)O [R-848, resiquimod]
concentration of IFN-α in sera (MyD88 knockout mice): did not show any reactivity
concentration of IL12p40 in sera (MyD88 knockout mice): did not show any reactivity
concentration of TNF-α in sera (MyD88 knockout mice): did not show any reactivity
increment of IFN-α in sera (TLR7 knockout mice): not observed
increment of IL12p40 in sera (TLR7 knockout mice): not observed
increment of TNF-α in sera (TLR7 knockout mice): not observed
IL-12 produced by peritoneal macrophages [1]: hardly produced any cytokines
TNF-α produced by peritoneal macrophages [1]: hardly produced any cytokines
activation of c-Jun N terminal kinase (JNK) [2]: completely destructed
enhanced DNA avidity of NF-κB transcription (EMSA) [2]: completely destructed
phosphorylation of IRAK [2]: completely destructed
IL-12 produced by peritoneal macrophages [3]: in large amount
TNF-α produced by peritoneal macrophages [3]: in large amount
CD40 expression on cell surface [4]: not enhanced
CD80 expression on cell surface [4]: not enhanced
CD86 expression on cell surface [4]: not enhanced
production of IL-6 by peritoneal macrophages [5]: not confirmed
production of IL-12p40 by peritoneal macrophages [5]: not confirmed
production of TNF-α by peritoneal macrophages [5]: not confirmed
NF-κB-dependent promoter (luciferase activity) (TLR7): promoted
treating genital herpes (genital herpes): effective
activation of c-Jun N terminal kinase (JNK) [6]: induced
enhanced DNA avidity of NF-κB transcription (EMSA) [6]: induced
phosphorylation of IRAK [6]: induced
concentration of IFN-α in sera (wild-type mice): increased significantly
concentration of IL12p40 in sera (wild-type mice): increased significantly
concentration of TNF-α in sera (wild-type mice): increased significantly
concentration of IFN-α in serum (BALB/c mice (wild-type)): increased depending on applied dose
concentration of IL-12 in serum (BALB/c mice (wild-type)): increased depending on applied dose
concentration of TNF-α in serum (BALB/c mice (wild-type)): increased depending on applied dose
CD40 expression on cell surface [7]: upregulation
CD80 expression on cell surface [7]: upregulation
CD86 expression on cell surface [7]: upregulation
proliferation of splenic cells ([3H] thymidine incorporation) [8]: did not show proliferation
proliferation of splenic cells ([3H] thymidine incorporation) [9]: showed proliferation depending on concentration

CC(C)Cn1cnc2c(N)nc3ccccc3c21 [imiquimod]
replication of type 2 herpes simplex virus [10]: inhibit the replication
replication of cytomegalovirus (cytomegalovirus): inhibit the replication
induction of cytokines such as IFN-α, IL-6 and IL-12 (various types of cells): inducing cytokines such as IFN-α, IL-6 and IL-12
IL-12 produced by peritoneal macrophages [1]: hardly produced any cytokines
TNF-α produced by peritoneal macrophages [1]: hardly produced any cytokines
IL-12 produced by peritoneal macrophages [3]: in large amount
TNF-α produced by peritoneal macrophages [3]: in large amount
stimulation of NF-κB and MAP kinase (NF-κB and MAP kinase): stimulates
antitumor activity (animal model): antitumor activity
antivirus activity (animal model): shows antivirus activity
treating pudendal wart (condyloma acuminatum) caused by human papilloma virus (human papilloma virus): effective
concentration of IFN-α in serum (BALB/c mice (wild-type)): increased depending on applied dose
concentration of IL-12 in serum (BALB/c mice (wild-type)): increased depending on applied dose
concentration of TNF-α in serum (BALB/c mice (wild-type)): increased depending on applied dose
